Values of other authors in patent US20200360403A1, “OPTHALMIC COMPOSITIONS FOR INHIBITING CLOUDING OF THE OCULAR LENS” (priority 2019, published 2020).

Experiments:
cffl-crystallins = details: compared to ATP
aggregated lens protein = details: all studies by Daszynski et al.

| Compound | binding scores for good predictive binding to the crystallins (cffl-crystallins) | anti-cataractogenic activity or binding of aggregated lens protein to dissolve cataracts (aggregated lens protein) |
| --- | --- | --- |
| C[C@H](CCCC(C)(C)O)[C@H]1CC[C@H]2[C@@H]3CC=C4C[C@@H](O)CC[C@]4(C)[C@H]3CC[C@]12C [25-hydroxycholesterol] | failed to reach the acceptable threshold binding scores | failed to provide evidence |
| CC(C)=CCC[C@@H](C)[C@H]1CC[C@@]2(C)C3=C(CC[C@]12C)[C@@]1(C)CC[C@H](O)C(C)(C)[C@@H]1CC3 [lanosterol] | failed to reach the acceptable threshold binding scores | failed to provide evidence |
